Data as given in US20130065818A1, “Arylamide Compounds And Compositions And Uses Thereof” (POLYMEDIX, priority 2006, published 2013).
Several values for one entry are separate records, joined by “and”; a condition that tells them apart may be missing. Identical values can stand only once. Entries after “also recorded” stand apart in the source; their conditions may differ.

Assays:
[1] = Draize ocular toxicity scoring, NZW rabbit ocular toxicity model; type: in vivo; design: key to MMTS / Score (Draize total): Draize total score of cornea, iris and conjunctivae; maximum 110; III. B. Chemosis / I. A. Cornea opacity / I. B. Area of cornea involved / II. A. Iris / III. A. Conjunctivae redness / III. C. Discharge: scale not given here
Method: The ocular toxicity of several concentrations of Oligomer 2, using the Draize ocular toxicity scoring system, in the NZW rabbit ocular toxicity model was carried out.
(§1) Rabbits were treated in both eyes with (37 μl) topical drops every 30 minutes for 3 hours (7 total doses). One rabbit was treated with Tris-Buffered Saline and served as a negative control. Rabbits were evaluated in a masked fashion for ocular toxicity by an ophthalmologist with specialty training in corneal and external disease. Ocular toxicity was evaluated using the Draize scoring system after treatment on Day 0 and on Day 3 post treatment for any delayed toxicity. (Draize et al., J. Pharmacol. Exp. Ther., 1944, 82, 377-390).
A brief summary of the Draize scoring system for ocular lesions is provided below
Total Maximum Score: 110 represents the sum of all scores obtained for the cornea, iris and conjunctivae.
The ocular toxicity of several formulations of Oligomer 4 with and without farnesol, using the Draize ocular toxicity scoring system, in the NZW rabbit ocular toxicity model was carried out.
as §1, with “external disease 30 minutes after the final dose.” for “external disease.”, “system (see above)” for “system”, “Day 2” for “Day 3”, “toxicity.” for “toxicity. (Draize et al., J. Pharmacol. Exp. Ther., 1944, 82, 377-390).”

[2] = test system: fluoroquinolone-resistant, methicillin-resistant Staphylococcus aureus (K950); test: NZW rabbit keratitis model, corneal colony counts; type: in vivo; conditions: for Log10 CFU/ml, Median / Log10 CFU/ml Maximum / Log10 CFU/ml Minimum / Log10 CFU/ml, Mean: 6 corneas; for Mean Rank, Kruskal-Wallis ANOVA with Duncan Multiple Comparisons Test - Log10 CFU/ml / Statistical comparison of colony counts between groups (< = significantly fewer colony counts): P = 0.05; for Log10 CFU/ml Maximum / Log10 CFU/ml Minimum / Log10 CFU/ml, Mean: Descriptive Statistics; for Reduction of colony counts compared with the Saline Control: corneal epithelium intact or removed; for Log10 CFU/ml: individual corneas (Row 1-6; K-3, K-4); for CFU/ml: individual corneas (Row 1-6; Ker-3, Ker-4)
Method in brief: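 NZW rabbit corneas, with or without intact epithelia, infected with fluoroquinolone-resistant MRSA; right eyes left untreated. Topical treatments included 1%, 0.5% or 0.25% Oligomer 2 (0.25% ± 0.005% benzalkonium chloride), 0.25% Oligomer 4 ± 200 μM Farnesol, 200 μM Farnesol alone, and 5% vancomycin; read-out corneal colony counts.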

[3] = 100 μM Farnesol in 1% PG and TBS, Day 0
[4] = 100 μM Farnesol in 1% PG and TBS, Day 0, per eye
[5] = 100 μM Farnesol in 1% PG and TBS, Day 2
[6] = 100 μM Farnesol in 1% PG and TBS, Day 2, per eye
[7] = 100 μM in 1% Propylene Glycol (PG) and TBS, Day 0
[8] = 100 μM in 1% Propylene Glycol (PG) and TBS, Day 2
[9] = 200 μM Farnesol in 1% PG and TBS, Day 0
[10] = 200 μM Farnesol in 1% PG and TBS, Day 0, per eye
[11] = 200 μM Farnesol in 1% PG and TBS, Day 2
[12] = 200 μM Farnesol in 1% PG and TBS, Day 2, per eye
[13] = 200 μM in 1% Propylene Glycol (PG) and TBS, Day 0
[14] = 200 μM in 1% Propylene Glycol (PG) and TBS, Day 2

In the case of CC(C)=CCCC(C)=CCCC(C)=CCO [Farnesol], the “Classification of eye irritation” value [1, 3] is reported as “Non-Irritating”, the MMTS [1, 3] is reported as 0.0 and the MMTS classification symbol [1, 3] is reported as “N (0.0-0.5 Non-Irritating)”. For the same compound, the “I. A. Cornea opacity” value [1, 4] was 0, the “I. B. Area of cornea involved” value [1, 4] was 0 and the “I. Tot (cornea, A × B × 5)” value [1, 4] was 0. The “II. A. Iris” value [1, 4] was 0, the “II. Tot (iris, A × 5)” value [1, 4] was 0 and the “III. A. Conjunctivae redness” value [1, 4] was 0. The “III. B. Chemosis” value [1, 4] was 0, the “III. C. Discharge” value [1, 4] was 0 and the “III. Tot (conjunctivae, (A + B + C) × 2)” value [1, 4] was 0. The “Score (Draize total)” value [1, 4] was 0, the MMTS [1, 5] was 1.5 and the MMTS classification symbol [1, 5] was “PN (0.6-2.5 Practically Non-Irritating)”. The “I. A. Cornea opacity” value [1, 6] was 0, the “I. B. Area of cornea involved” value [1, 6] was 0 and the “I. Tot (cornea, A × B × 5)” value [1, 6] was 0. For the same compound, the “II. A. Iris” value [1, 6] was 0, the “II. Tot (iris, A × 5)” value [1, 6] was 0 and the “III. A. Conjunctivae redness” value [1, 6] was 0. For the same compound, the “III. B. Chemosis” value [1, 6] was 0, the MMTS [1, 7] was 0.0 and the MMTS classification [1, 7] was “N (0.0-0.5 Non-Irritating)”. For the same compound, the MMTS [1, 8] was 1.5, the MMTS classification [1, 8] was “PN (0.6-2.5 Practically Non-Irritating)” and the “Classification of eye irritation” value [1, 9] was “Non-Irritating”. For the same compound, the MMTS [1, 9] was 0.5, the MMTS classification symbol [1, 9] was “N (0.0-0.5 Non-Irritating)” and the “I. A. Cornea opacity” value [1, 10] was 0. The “I. B. Area of cornea involved” value [1, 10] was 0, the “I. Tot (cornea, A × B × 5)” value [1, 10] was 0 and the “II. A. Iris” value [1, 10] was 0. For the same compound, the “II. Tot (iris, A × 5)” value [1, 10] was 0, the “III. A. Conjunctivae redness” value [1, 10] was 0 and the “III. B. Chemosis” value [1, 10] was 0. For the same compound, the “Classification of eye irritation” value [1, 11] was “Non-Irritating”, the MMTS [1, 11] was 0.5 and the MMTS classification symbol [1, 11] was “N (0.0-0.5 Non-Irritating)”. The “I. A. Cornea opacity” value [1, 12] was 0, the “I. B. Area of cornea involved” value [1, 12] was 0 and the “I. Tot (cornea, A × B × 5)” value [1, 12] was 0. For the same compound, the “II. A. Iris” value [1, 12] was 0, the “II. Tot (iris, A × 5)” value [1, 12] was 0 and the “III. A. Conjunctivae redness” value [1, 12] was 0. The “III. B. Chemosis” value [1, 12] was 0, the MMTS [1, 13] was 0.5 and the MMTS classification [1, 13] was “N (0.0-0.5 Non-Irritating)”. The MMTS [1, 14] was 0.5, the MMTS classification [1, 14] was “N (0.0-0.5 Non-Irritating)” and the “Log10 CFU/ml, Median” value ([2]; Abraded Epithelium) was 6.849 Log10 CFU/ml and 6.8489 Log10 CFU/ml. For the same compound, the “Log10 CFU/ml, Median” value ([2]; Intact Epithelium) was 7.3000 Log10 CFU/ml, the “Mean Rank, Kruskal-Wallis ANOVA with Duncan Multiple Comparisons Test - Log10 CFU/ml” value ([2]; Abraded Epithelium) was 23.5000 and the “Statistical comparison of colony counts between groups (< = significantly fewer colony counts)” value ([2]; Abraded Epithelium) was “PMX = P + F < ONSET < FARN = CON”. The “Effect of Abraded Epithelium on Effectiveness of Each Test Solution (colony counts, < = significantly fewer)” value ([2]; Abraded vs. Intact Epithelium, Mann-Whitney Test) was “FARN-AE < FARN-IE; also recorded: Abraded < Intact”, the “Log10 CFU/ml Maximum” value ([2]; Abraded Epithelium) was 6.916 Log10 CFU/ml and the “Log10 CFU/ml Minimum” value ([2]; Abraded Epithelium) was 6.109 Log10 CFU/ml. For the same compound, the “Log10 CFU/ml, Mean” value ([2]; Abraded Epithelium) was 6.626 Log10 CFU/ml, the “Log10 CFU/ml Maximum” value ([2]; Intact Epithelium) was 7.6551 Log10 CFU/ml and the “Log10 CFU/ml Minimum” value ([2]; Intact Epithelium) was 7.1818 Log10 CFU/ml. The “Log10 CFU/ml, Mean” value ([2]; Intact Epithelium) was 7.3624 Log10 CFU/ml, the “Effect of Abraded Epithelium on Effectiveness of Each Test Solution (colony counts, abraded vs. intact)” value ([2]; Example 11, Mann-Whitney test, < = significantly fewer colony counts) was “Abraded = Intact” and the “Point estimate for ETA1-ETA2 (Mann-Whitney, Log10 CFU/ml), Intact minus Abraded Epithelium” value ([2]; IE Log vs AE Log of the same test solution) was “Point estimate for ETA1-ETA2 is 0.5964”. For the same compound, the “Mean Rank, Kruskal-Wallis ANOVA with Duncan Multiple Comparisons Test - Log10 CFU/ml” value ([2]; Intact Epithelium) was 22.1667, the “Statistical comparison of colony counts between groups (< = significantly fewer colony counts)” value ([2]; Intact Epithelium) was “ONSET = PMX = P + F < FARN = CON” and the “Statistical comparison of corneal colony counts (< = significantly fewer colony counts)” value ([2]; Ker-3 (Example 11), abraded epithelium, 21 doses) was “PMX═P+F═ONSET<FARN═CON”. For the same compound, the “Statistical comparison of corneal colony counts (< = significantly fewer colony counts)” value ([2]; Ker-3 (Example 11), intact epithelium, 21 doses) was “ONSET=PMX═P+F<FARN═CON”, the “Reduction of colony counts compared with the Saline Control” value ([2]; Ker-3) was “NOT effective” and the “Colony counts, corneal epithelium removed compared with intact epithelium” value ([2]; Ker-4) was “significantly fewer colony counts in eyes with the corneal epithelium removed”. For the same compound, the “Statistical comparison of corneal colony counts (< = significantly fewer colony counts)” value ([2]; Ker-4 (Example 12), abraded epithelium) was “PMX═P+F<ONSET<FARN═CON”, the “Statistical comparison of corneal colony counts (< = significantly fewer colony counts)” value ([2]; Ker-4 (Example 12), intact epithelium) was “ONSET=PMX═P+F<FARN═CON” and the “Reduction of colony counts compared with the Saline Control” value ([2]; Ker-4) was “not effective”. The “Log10 CFU/ml” value ([2]; Abraded Epithelium) was 6.875 Log10 CFU/ml and 6.109 Log10 CFU/ml and 6.146 Log10 CFU/ml and 6.889 Log10 CFU/ml and 6.823 Log10 CFU/ml and 6.916 Log10 CFU/ml, the “Log10 CFU/ml” value ([2]; Intact Epithelium) was 7.182 Log10 CFU/ml and 7.259 Log10 CFU/ml and 7.479 Log10 CFU/ml and 7.655 Log10 CFU/ml and 7.27 Log10 CFU/ml and 7.33 Log10 CFU/ml and the CFU/ml ([2]; Abraded Epithelium) was 7500000 CFU/ml and 1285000 CFU/ml and 1400000 CFU/ml and 7750000 CFU/ml and 6650000 CFU/ml and 8250000 CFU/ml. For the same compound, the CFU/ml ([2]; Intact Epithelium) was 15200000 CFU/ml and 18150000 CFU/ml and 30100000 CFU/ml and 45200000 CFU/ml and 18600000 CFU/ml and 21400000 CFU/ml.
